Measurements from PubChem BioAssay AID1259407 (Chemical Carcinogenesis Research Information System (CCRIS), 2018).
Calls of active or inactive are those of the source. No rule for the calls is given here.

Tested on: CCRIS mutagenicity, Ames/micronucleus/aberration tests
Assay: CCRIS mutagenicity studies
[1] = Test System: AMES SALMONELLA TYPHIMURIUM, Strain/Indicator: TA102, Metabolic Activation: RAT, LIVER, S-9, AROCLOR 1254, Method: PREINCUBATION
[2] = Test System: AMES SALMONELLA TYPHIMURIUM, Strain/Indicator: TA98, Metabolic Activation: NONE, Method: PREINCUBATION
[3] = Test System: AMES SALMONELLA TYPHIMURIUM, Strain/Indicator: TA100, Metabolic Activation: NONE, Method: PREINCUBATION
[4] = Test System: AMES SALMONELLA TYPHIMURIUM, Strain/Indicator: TA1535, Metabolic Activation: NONE, Method: PREINCUBATION

Question: Which mutagenic call (Test System: AMES SALMONELLA TYPHIMURIUM, Strain/Indicator: TA97, Metabolic Activation: NONE, Method: PREINCUBATION) does the source give for `CCCC(=O)OCCC(C)C` here?
Answer: The mutagenic call was “inactive; negative”.

Question: What about the mutagenic call (Test System: AMES SALMONELLA TYPHIMURIUM, Strain/Indicator: TA97, Metabolic Activation: RAT, LIVER, S-9, AROCLOR 1254, Method: PREINCUBATION) of the same compound?
Answer: The mutagenic call was “inactive; negative”.

Question: And the mutagenic call (Test System: AMES SALMONELLA TYPHIMURIUM, Strain/Indicator: TA102, Metabolic Activation: NONE, Method: PREINCUBATION)?
Answer: The mutagenic call was “inactive; negative”.

Question: What about the mutagenic call [1] of the same compound?
Answer: The mutagenic call was “inactive; negative”.

Question: For `C[N+](=O)[O-]`, which mutagenic call (Test System: AMES SALMONELLA TYPHIMURIUM, Strain/Indicator: TA98, Metabolic Activation: HAMSTER, LIVER, S-9, AROCLOR 1254 (10%), Method: PREINCUBATION) is on record?
Answer: The mutagenic call was “inactive; negative”.

Question: And the mutagenic call (Test System: AMES SALMONELLA TYPHIMURIUM, Strain/Indicator: TA98, Metabolic Activation: HAMSTER, LIVER, S-9, AROCLOR 1254, FLAVIN MONONUCLEOTIDE, Method: PREINCUBATION)?
Answer: The mutagenic call was “inactive; negative”.

Question: And the mutagenic call [2]?
Answer: Its mutagenic call is “inactive; negative”.

Question: What about the mutagenic call (Test System: AMES SALMONELLA TYPHIMURIUM, Strain/Indicator: TA98, Metabolic Activation: RAT, LIVER, S-9, AROCLOR 1254 (10%), Method: PREINCUBATION) of the same compound?
Answer: Its mutagenic call is “inactive; negative”.

Question: What about the mutagenic call (Test System: AMES SALMONELLA TYPHIMURIUM, Strain/Indicator: TA98, Metabolic Activation: RAT, LIVER, S-9, KANECHLOR 500, Method: PREINCUBATION) of the same compound?
Answer: Its mutagenic call is “inactive; negative”.

Question: What about the mutagenic call (Test System: AMES SALMONELLA TYPHIMURIUM, Strain/Indicator: TA100, Metabolic Activation: HAMSTER, LIVER, S-9, AROCLOR 1254 (10%), Method: PREINCUBATION) of the same compound?
Answer: The mutagenic call was “inactive; negative”.

Question: What about the mutagenic call (Test System: AMES SALMONELLA TYPHIMURIUM, Strain/Indicator: TA100, Metabolic Activation: HAMSTER, LIVER, S-9, AROCLOR 1254, FLAVIN MONONUCLEOTIDE, Method: PREINCUBATION) of the same compound?
Answer: Its mutagenic call is “inactive; negative”.

Question: What about the mutagenic call [3] of the same compound?
Answer: Its mutagenic call is “inactive; negative”.

Question: And the mutagenic call (Test System: AMES SALMONELLA TYPHIMURIUM, Strain/Indicator: TA100, Metabolic Activation: RAT, LIVER, S-9, AROCLOR 1254 (10%), Method: PREINCUBATION)?
Answer: The mutagenic call was “inactive; negative”.

Question: And the mutagenic call (Test System: AMES SALMONELLA TYPHIMURIUM, Strain/Indicator: TA100, Metabolic Activation: RAT, LIVER, S-9, KANECHLOR 500, Method: PREINCUBATION)?
Answer: Its mutagenic call is “inactive; negative”.

Question: And the mutagenic call (Test System: AMES SALMONELLA TYPHIMURIUM, Strain/Indicator: TA1535, Metabolic Activation: HAMSTER, LIVER, S-9, AROCLOR 1254 (10%), Method: PREINCUBATION)?
Answer: Its mutagenic call is “inactive; negative”.

Question: And the mutagenic call [4]?
Answer: Its mutagenic call is “inactive; negative”.

Question: What about the mutagenic call (Test System: AMES SALMONELLA TYPHIMURIUM, Strain/Indicator: TA1535, Metabolic Activation: RAT, LIVER, S-9, AROCLOR 1254 (10%), Method: PREINCUBATION) of the same compound?
Answer: Its mutagenic call is “inactive; negative”.

Question: And the mutagenic call (Test System: AMES SALMONELLA TYPHIMURIUM, Strain/Indicator: TA1537, Metabolic Activation: HAMSTER, LIVER, S-9, AROCLOR 1254 (10%), Method: PREINCUBATION)?
Answer: The mutagenic call was “inactive; negative”.

Question: What about the mutagenic call (Test System: AMES SALMONELLA TYPHIMURIUM, Strain/Indicator: TA1537, Metabolic Activation: NONE, Method: PREINCUBATION) of the same compound?
Answer: Its mutagenic call is “inactive; negative”.

Question: And the mutagenic call (Test System: AMES SALMONELLA TYPHIMURIUM, Strain/Indicator: TA1537, Metabolic Activation: RAT, LIVER, S-9, AROCLOR 1254 (10%), Method: PREINCUBATION)?
Answer: Its mutagenic call is “inactive; negative”.

Question: What about the mutagenic call (Test System: E. COLI, Strain/Indicator: WP2 UVRA (PKM101), Metabolic Activation: NONE, Method: PREINCUBATION) of the same compound?
Answer: Its mutagenic call is “inactive; negative”.

Question: What about the mutagenic call (Test System: E. COLI, Strain/Indicator: WP2 UVRA (PKM101), Metabolic Activation: RAT, LIVER, S-9, KANECHLOR 500, Method: PREINCUBATION) of the same compound?
Answer: Its mutagenic call is “inactive; negative”.

Question: And the mutagenic call (Test System: MOUSE LYMPHOMA, Strain/Indicator: L5178Y (TK+/TK-), Metabolic Activation: NONE, Method: SUSPENSION/PLATE)?
Answer: Its mutagenic call is “active; positive. reevaluation of results: equivocal”.

Question: What about the mutagenic call (Test System: Mouse lymphoma, Strain/Indicator: L5178Y (tk+/tk-), Metabolic Activation: Rat, Liver, S-9, Aroclor 1254, Method: Suspension/plate) of the same compound?
Answer: Its mutagenic call is “inactive; negative”.

Question: `COc1ccc2c(c1)[C@@H]1CCCC[C@H]1C=C2` was tested. Which mutagenic call (Test System: AMES SALMONELLA TYPHIMURIUM, Strain/Indicator: TA98, Metabolic Activation: RAT, LIVER, S-9, SODIUM PHENOBARBITAL AND BETA-NAPHTHOFLAVONE, Method: STANDARD PLATE) did it give?
Answer: Its mutagenic call is “active; positive”.

Question: And the mutagenic call (Test System: AMES SALMONELLA TYPHIMURIUM, Strain/Indicator: TA100, Metabolic Activation: RAT, LIVER, S-9, SODIUM PHEOBARBITAL AND BETA-NAPHTHOFLAVONE, Method: STANDARD PLATE)?
Answer: Its mutagenic call is “active; positive”.

Question: Which results are given for `CC=C(Cl)Cl`?
Answer: mutagenic call (Test System: AMES SALMONELLA TYPHIMURIUM, Strain/Indicator: RSJ100, Metabolic Activation: NONE, Method: PREINCUBATION): active; positive; mutagenic call (Test System: AMES SALMONELLA TYPHIMURIUM, Strain/Indicator: RSJ100, Metabolic Activation: NONE, Method: VAPOR PHASE): active; positive; mutagenic call [2]: inactive; negative; mutagenic call (Test System: AMES SALMONELLA TYPHIMURIUM, Strain/Indicator: TA98, Metabolic Activation: RAT, LIVER, S-9, AROCLOR, Method: PREINCUBATION): inactive; negative; mutagenic call [3]: inactive; negative; mutagenic call (Test System: AMES SALMONELLA TYPHIMURIUM, Strain/Indicator: TA100, Metabolic Activation: RAT, LIVER, S-9, AROCLOR, Method: PREINCUBATION): inactive; negative; mutagenic call (Test System: AMES SALMONELLA TYPHIMURIUM, Strain/Indicator: TA104, Metabolic Activation: NONE, Method: PREINCUBATION): inactive; negative; mutagenic call (Test System: AMES SALMONELLA TYPHIMURIUM, Strain/Indicator: TA104, Metabolic Activation: RAT, LIVER, S-9, AROCLOR, Method: PREINCUBATION): inactive; negative; mutagenic call [4]: inactive; negative; mutagenic call (Test System: AMES SALMONELLA TYPHIMURIUM, Strain/Indicator: TA1535, Metabolic Activation: RAT, LIVER, S-9, AROCLOR, Method: PREINCUBATION): inactive; negative; mutagenic call (Test System: AMES SALMONELLA TYPHIMURIUM, Strain/Indicator: TPT100, Metabolic Activation: NONE, Method: PREINCUBATION): inactive; negative; mutagenic call (Test System: AMES SALMONELLA TYPHIMURIUM, Strain/Indicator: TPT100, Metabolic Activation: NONE, Method: VAPOR PHASE): active; positive

Question: Which mutagenic call [2] does the source give for `NC(=O)/C=C/c1ccc([N+](=O)[O-])o1` here?
Answer: The mutagenic call was “active; positive”.

Question: What about the mutagenic call (Test System: UDS HUMAN FIBROBLASTS, Strain/Indicator: THY INCORP (NON-S-PHASE), Metabolic Activation: NONE, Method: AUTORADIOGRAPHY) of the same compound?
Answer: The mutagenic call was “active; positive”.

Question: Which results are given for `CC(=O)NC[C@@H](O)COc1cccc2ccccc12`?
Answer: mutagenic call (Test System: AMES SALMONELLA TYPHIMURIUM, Strain/Indicator: TA98, Metabolic Activation: RAT, LIVER, S-9, AROCLOR 1254, Method: PREINCUBATION): inactive; negative; mutagenic call (Test System: AMES SALMONELLA TYPHIMURIUM, Strain/Indicator: TA100, Metabolic Activation: RAT, LIVER, S-9, AROCLOR 1254, Method: PREINCUBATION): inactive; negative; mutagenic call [1]: inactive; negative; mutagenic call (Test System: AMES SALMONELLA TYPHIMURIUM, Strain/Indicator: TA104, Metabolic Activation: RAT, LIVER, S-9, AROCLOR 1254, Method: PREINCUBATION): inactive; negative; mutagenic call (Test System: AMES SALMONELLA TYPHIMURIUM, Strain/Indicator: TA1535, Metabolic Activation: RAT, LIVER, S-9, AROCLOR 1254, Method: PREINCUBATION): inactive; negative; mutagenic call (Test System: AMES SALMONELLA TYPHIMURIUM, Strain/Indicator: TA1538, Metabolic Activation: RAT, LIVER, S-9, AROCLOR 1254, Method: PREINCUBATION): inactive; negative; mutagenic call (Test System: AMES SALMONELLA TYPHIMURIUM, Strain/Indicator: YG1021, Metabolic Activation: RAT, LIVER, S-9, AROCLOR 1254, Method: PREINCUBATION): inactive; negative; mutagenic call (Test System: AMES SALMONELLA TYPHIMURIUM, Strain/Indicator: YG1024, Metabolic Activation: RAT, LIVER, S-9, AROCLOR 1254, Method: PREINCUBATION): inactive; negative; mutagenic call (Test System: AMES SALMONELLA TYPHIMURIUM, Strain/Indicator: YG1026, Metabolic Activation: RAT, LIVER, S-9, AROCLOR 1254, Method: PREINCUBATION): inactive; negative; mutagenic call (Test System: AMES SALMONELLA TYPHIMURIUM, Strain/Indicator: YG1029, Metabolic Activation: RAT, LIVER, S-9, AROCLOR 1254, Method: PREINCUBATION): inactive; negative; mutagenic call (Test System: AMES SALMONELLA TYPHIMURIUM, Strain/Indicator: YG1041, Metabolic Activation: RAT, LIVER, S-9, AROCLOR 1254, Method: PREINCUBATION): inactive; negative; mutagenic call (Test System: AMES SALMONELLA TYPHIMURIUM, Strain/Indicator: YG1042, Metabolic Activation: RAT, LIVER, S-9, AROCLOR 1254, Method: PREINCUBATION): inactive; negative; mutagenic call (Test System: AMES SALMONELLA TYPHIMURIUM, Strain/Indicator: YG3003, Metabolic Activation: RAT, LIVER, S-9, AROCLOR 1254, Method: PREINCUBATION): inactive; negative
